Results published in US6828111B2, “Three-dimensional in vitro model of human preneoplastic breast disease” (Wayne State University, priority 2000, dated 2004).
“Also recorded” adds a separate entry of the source.

Key:
Type in all cases: cell-based, human
EIII8-HUVEC co-cultures [1] = assay: Heterotypic EIII8-HUVEC 3D Matrigel co-culture, morphology; conditions: for inhibition of endothelial sprouting and associated ductal-alveolar morphogenesis: 1 nM E2 plus 100-fold molar excess of antiestrogen, day 5
Text: For heterotypic 3D co-cultures, 5×10^4 MCF10A, MCF10AT1, or EIII8 cells were mixed with an equal number of HUVECs, human breast fibroblasts (reduction mammoplasty, benign or tumor-derived), IMR-90, HT1080 or NIH 3T3 cells. For heterotypic tricultures, MCF10A or EIII8 cells were mixed with equivalent numbers of human breast fibroblasts (reduction mammoplasty, benign or tumor-derived) and HUVECs and seeded onto chamber slides coated with Matrigel as described for homotypic cultures. Typically, heterotypic co-cultures were performed in SFM supplemented with EGF and bFGF since this medium results in optimal viability, growth and 3D organization of both HUVEC and MCF10A cells. Typically, heterotypic cultures were performed in SFM supplemented with EGF and bFGF because it allows optimal viability, growth and 3D organization of HUVEC, fibroblasts and MCF10A cells. Heterotypic co-cultures were routinely maintained up to 3 weeks, and morphological development was analyzed by phase contrast microscopy. F To assess growth effects of E2 on homotypic (EIII8) or heterotypic (EIII8-HUVEC) 3D cultures, 5×10^4 EIII8 cells were seeded alone or mixed with an equivalent number of HUVEC in the appropriate medium in 8-well chamber slides coated with Matrigel as described above. Slides were incubated overnight to allow attachment of the cells, and treated with vehicle (0.01% ethanol, v/v), pure antiestrogen ICI 182,780 alone (100 or 1000 nM (Zeneca Pharmaceuticals, […]2 (0.1, 1 or 10 nM; Sigma Chemical Co., St. Louis, Mo.), or a combination of 1 nM E2 and 100- or 1000-fold molar excess of ICI 182,780. Cultures were incubated at 37° C. for 5 days, after which cell viability was measured with the MTS (3-(4,5-dimethylthiazol-2-yl)-5-(3-carboxymethoxyphenyl)-2-(4-sulfophenyl)-2H-tetrazolium) kit according to the manufacturer's directions (Promega Corp, Madison, Wis.).

EIII8 cells = assay: Homotypic EIII8 3D Matrigel culture, phase contrast morphology
MCF10A-HUVEC co-cultures = assay: Heterotypic MCF10A-HUVEC 3D Matrigel co-culture, morphology
Text: For heterotypic 3D co-cultures, 5×10^4 MCF10A, MCF10AT1, or EIII8 cells were mixed with an equal number of HUVECs, human breast fibroblasts (reduction mammoplasty, benign or tumor-derived), IMR-90, HT1080 or NIH 3T3 cells. For heterotypic tricultures, MCF10A or EIII8 cells were mixed with equivalent numbers of human breast fibroblasts (reduction mammoplasty, benign or tumor-derived) and HUVECs and seeded onto chamber slides coated with Matrigel as described for homotypic cultures. Typically, heterotypic co-cultures were performed in SFM supplemented with EGF and bFGF since this medium results in optimal viability, growth and 3D organization of both HUVEC and MCF10A cells. Typically, heterotypic cultures were performed in SFM supplemented with EGF and bFGF because it allows optimal viability, growth and 3D organization of HUVEC, fibroblasts and MCF10A cells. Heterotypic co-cultures were routinely maintained up to 3 weeks, and morphological development was analyzed by phase contrast microscopy. F

EIII8-HUVEC co-cultures [2] = assay: 3D growth of EIII8-HUVEC cultures by MTS assay and trypan blue counts
Protocol: To assess growth effects of E2 on homotypic (EIII8) or heterotypic (EIII8-HUVEC) 3D cultures, 5×10^4 EIII8 cells were seeded alone or mixed with an equivalent number of HUVEC in the appropriate medium in 8-well chamber slides coated with Matrigel as described above. Slides were incubated overnight to allow attachment of the cells, and treated with vehicle (0.01% ethanol, v/v), pure antiestrogen ICI 182,780 alone (100 or 1000 nM (Zeneca Pharmaceuticals, […]2 (0.1, 1 or 10 nM; Sigma Chemical Co., St. Louis, Mo.), or a combination of 1 nM E2 and 100- or 1000-fold molar excess of ICI 182,780. Cultures were incubated at 37° C. for 5 days, after which cell viability was measured with the MTS (3-(4,5-dimethylthiazol-2-yl)-5-(3-carboxymethoxyphenyl)-2-(4-sulfophenyl)-2H-tetrazolium) kit according to the manufacturer's directions (Promega Corp, Madison, Wis.). Measurements were made from triplicate sets of wells for each treatment. Background absorbance was corrected by preparing triplicate sets of wells containing only Matrigel (“no cell”) and the same volume of medium and MTS reagent as in experimental wells. Average absorbances from “no cell” wells were subtracted from sample absorbance values containing cells to yield corrected absorbance, and the results represent the average±S.E. of triplicate samples. Each experiment was repeated at least three times. Since the MTS assays performed here differs from routine MTS assays in that they are done on 3D cultures growing in Matrigel rather than monolayers, results of MTS assays were validated by performing direct cell counts of viable cells in the 3D cultures. For this, the medium was removed, wells rinsed with PBS, and Matrigel was digested with dispase for 2 h at 37° C. The digested material was centrifuged at 4000×g for 10 min, and the pellet treated with trypsin to recover single cells from the 3D tubular structures. The number of viable cells was determined by trypan blue exclusion in a hemocytometer. Results were expressed as mean±S.E. from three independent experiments.

VEGF165 = assay: Western blot of VEGF165 in culture media of EIII8-HUVEC 3D cultures
Protocol: (§1) 5×10^4 EIII8 or MCF10A cells were seeded alone or mixed with an equivalent number of HUVEC on Matrigel in SFM media as described above. Cells were incubated for 6 h to attach and the medium was replaced with fresh SFM. After appropriate incubation, the culture media from homotypic and heterotypic co-cultures were collected, centrifuged to remove debris and stored at −20° C. Following removal of culture medium, matrix containing the 3D structures was either solubilized for SDS-PAGE and Western blot analysis or fixed in buffered formalin for evaluation of morphology and distribution of functional markers. Analysis of expression of VEGF, IL-8, Estrogen receptor (ER) and Flk-1/KDR proteins was carried out by Western analysis with specific antibodies. […] The following antibodies to human proteins were used: (1) rabbit polyclonal anti-VEGF antisera (recognizes C-terminal epitope of VEGF165, VEGF189 and VEGF206; Oncogene Science), mouse anti-ER mAb (Clone 1D5; reacts with the N-terminal domain or A/B region of the ER; Dako Corp., Carpenteria, Calif.), mouse anti-Flk-1/KDR mAb (Chemicon International, Inc.) and goat polyclonal anti-IL-8 antibody (R&D Systems). Immunoreactive bands were visualized by chemiluminescence, and band intensities were quantitated with a Model 300A densitometer (Molecular Dynamics, Sunnyvale, Calif.).

IL-8 = assay: Western blot of IL-8 in culture media of EIII8-HUVEC 3D cultures
Protocol: as §1

Flk-1/KDR = assay: Western blot of Flk-1/KDR in matrix fractions of EIII8-HUVEC 3D cultures; conditions: for regulation of Flk-1/KDR protein levels: 10-day old co-cultures
Protocol: (§2) 5×10^4 EIII8 or MCF10A cells were seeded alone or mixed with an equivalent number of HUVEC on Matrigel in SFM media as described above. Cells were incubated for 6 h to attach and the medium was replaced with fresh SFM. After appropriate incubation, the culture media from homotypic and heterotypic co-cultures were collected, centrifuged to remove debris and stored at −20° C. Following removal of culture medium, matrix containing the 3D structures was either solubilized for SDS-PAGE and Western blot analysis or fixed in buffered formalin for evaluation of morphology and distribution of functional markers.
Analysis of expression of VEGF, IL-8, Estrogen receptor (ER) and Flk-1/KDR proteins was carried out by Western analysis with specific antibodies. Aliquots of unconcentrated conditioned media or lysates of 3D cultures containing 20 or 40 μg total protein, respectively, were collected after indicated culture intervals, separated by SDS-PAGE on 12.5% (VEGF), 17% (IL-8) or 7% (ER and Flk-1/KDR) polyacrylamide gels (Laemmli, UK, Nature 227:680-685, 1970), and subjected to Western blot analysis. The following antibodies to human proteins were used: (1) rabbit polyclonal anti-VEGF antisera (recognizes C-terminal epitope of VEGF165, VEGF189 and VEGF206; Oncogene Science), mouse anti-ER mAb (Clone 1D5; reacts with the N-terminal domain or A/B region of the ER; Dako Corp., Carpenteria, Calif.), mouse anti-Flk-1/KDR mAb (Chemicon International, Inc.) and goat polyclonal anti-IL-8 antibody (R&D Systems). Immunoreactive bands were visualized by chemiluminescence, and band intensities were quantitated with a Model 300A densitometer (Molecular Dynamics, Sunnyvale, Calif.).

[3] = test system: EIII8+31R+HUVEC tricultures; assay: 3D growth of EIII8+31R+HUVEC tricultures, viable cell count; conditions: 1 or 10 nM E2, 6 days, reduction mammoplasty fibroblasts
Protocol: (§3) 3-D cultures were set up by seeding 5×10^4 EIII8, HUVEC, […] or […] (reduction mammoplasty fibroblasts), […] or […] (tumor-derived breast fibroblasts) alone or mixing 5×10^4 EIII8 cells with an equivalent number of […] (or […]) or […] (or […]) in the absence or presence of an equivalent number of HUVEC cells onto chamber slides coated with Matrigel as described above. Cultures were incubated at 37° C. for 6 days, after which the cell viability was measured in the 3-D cultures. The medium was removed, wells were rinsed with phosphate buffered saline, and the Matrigel was digested with dispase for 2 h at 37° C. The digested material was centrifuged at 4000×g for 10 min, and the pellet was treated with trypsin to recover single cells from the 3-D structures. The number of viable cells was determined by trypan blue exclusion in a hemocytometer and results expressed as average±SE from three independent experiments. […]

[4] = test system: EIII8+38T+HUVEC tricultures; assay: 3D growth of EIII8+38T+HUVEC tricultures, viable cell count
Protocol: as §3

[5] = test system: wild type ER protein (67 kDa); assay: Western blot of ER in matrix fractions of EIII8-HUVEC 3D cultures; conditions: 100-fold molar excess over E2, day 5; 42 kDa ER-reactive protein appears
Protocol: as §2
Analysis of expression of VEGF, IL-8, Estrogen receptor (ER) and Flk-1/KDR proteins was carried out by Western analysis with specific antibodies. Aliquots of unconcentrated conditioned media or lysates of 3D cultures containing 20 or 40 μg total protein, respectively, were collected after indicated culture intervals, separated by SDS-PAGE on 12.5% (VEGF), 17% (IL-8) or 7% (ER and Flk-1/KDR) polyacrylamide gels (Laemmli, UK, Nature 227:680-685, 1970), and subjected to Western blot analysis. […] Immunoreactive bands were visualized by chemiluminescence, and band intensities were quantitated with a Model 300A densitometer (Molecular Dynamics, Sunnyvale, Calif.).

Structure (SMILES): CC/C(=C(\c1ccc(O)cc1)c1ccc(OCCN(C)C)cc1)c1ccccc1 [4(OH) tamoxifen]
- inhibition of endothelial sprouting and associated ductal-alveolar morphogenesis (EIII8-HUVEC co-cultures [1]): dramatic inhibition

Structure (SMILES): C[C@]12CC[C@@H]3c4ccc(O)cc4CC[C@H]3[C@@H]1CC[C@@H]2O [E2, 17 β-estradiol]
- effect on EIII8 3D tubular structures (tube thickening, central spaces, connecting bridges) (EIII8 cells; 1 or 10 nM E2, 5 days, vs control cultures): marked thickening of tubes; also recorded: induce formation of several new central spaces and connecting bridges
- growth of endothelial cell-enriched spots and ductal-alveolar outgrowths (EIII8-HUVEC co-cultures [1]; 1 nM E2, 5-day co-cultures, vs control): enhanced
- influence on growth and proliferation of endothelial or epithelial cells (MCF10A-HUVEC co-cultures; addition of E2 (1 nM), day 5): no significant influence
- increase in growth over control cultures (EIII8-HUVEC co-cultures [2]; 10 nM E2, day 5, p<0.01): 2 fold
- concentrations giving dose dependent induction of growth (EIII8-HUVEC co-cultures [2]; day 5, MTS and trypan blue assays): > 1 nM
- increase in VEGF165 levels over control cultures (VEGF165; 1 nM E2, day 5, densitometry): 4 fold
- increase in VEGF165 levels over control cultures (VEGF165; 1 nM E2, day 10, densitometry): 8 fold
- regulation of IL-8 expression (IL-8; 1 nM E2, days 5 and 10): did not appear to regulate IL-8 expression
- levels of Flk-1/KDR protein, E2-treated vs control (Flk-1/KDR; 1 nM E2, 5 day-old cultures): equally up-regulated
- regulation of Flk-1/KDR protein levels (Flk-1/KDR): no longer regulated
- stimulation of triculture growth [3]: failed to stimulate growth
- increase in triculture growth ([4]; apparent only with 10 nM E2, 6 days, p<0.03): marginal increase

Structure (SMILES): C[C@]12CC[C@@H]3c4ccc(O)cc4C[C@@H](CCCCCCCCC[S+]([O-])CCCC(F)(F)C(F)(F)F)[C@H]3[C@@H]1CC[C@@H]2O (some centres unmarked) [ICI 182,780]
- blocking of E2-induced effects on EIII8 3D structures (epithelial multilayering) (EIII8 cells; 1 nM E2 plus 100-fold molar excess of antiestrogen, 5 days): blocked; also recorded: significantly inhibits
- inhibition of endothelial sprouting and associated ductal-alveolar morphogenesis (EIII8-HUVEC co-cultures [1]): dramatic inhibition; also recorded: specific inhibition
- formation of endothelial cell-enriched spots / endothelial cell growth (MCF10A-HUVEC co-cultures; 1 nM E2 plus 100-fold molar excess ICI 182,780, day 5, MCF10A epithelium maintained): abolished; also recorded: specific inhibition
- effect on growth promoting effects of E2 (EIII8-HUVEC co-cultures [2]; 100-fold molar excess over 1 nM E2, day 5, p<0.001): abolished
- E2-stimulated VEGF165 levels (VEGF165; ICI 182,780 at 100-fold molar excess over 1 nM E2): returned to control levels
- effect on IL-8 levels (IL-8; 100-fold molar excess over 1 nM E2, days 5 and 10): no effect
- regulation of Flk-1/KDR protein levels (Flk-1/KDR): no longer regulated
- reduction in Flk-1/KDR protein levels (Flk-1/KDR; 100-fold molar excess, 5-day old cultures): about 80%
- amount of wild type ER [5]: significantly reduced
- inhibition of growth in vehicle- and E2-treated cultures ([4]; 100 nM ICI 182,780 alone or with 1 nM E2, 6 days, p<0.001): significantly inhibited; also recorded: significantly decreased
